Marks after values point to notes of the source that are not given here.
Key:
[1] = tested on: proinflammatory cytokine induced CRP production by human hepatoma cell line PLC/PRF/5; test: CRP production by cytokine stimulated human hepatoma PLC/PRF/5 cells, CRP ELISA of cell media (Example 16); format: cell-based; settings: 10 ng/ml IL-6, 1 ng/ml IL-1, 1 μM dexamethasone, 24 hours, FIG. 1
Text: As noted above dialkyl ethers are useful for inhibiting proinflammatory cytokine induced CRP production. Studies have shown that the acute phase response can be recapitulated in cultured human hepatoma cells stimulated with the pro-inflammatory cytokines IL-6 and IL-1 in the presence of the corticosteroid Dexamethasone (Lozanski G, Berthier F, and Kushner I, 1997; Biochem J. 328:271-275). Using a similar hepatoma cell system we evaluated the effect 6,6′-oxybis(2,2-dimethylhexanoic acid) on CRP production by cytokine stimulated human hepatoma PLC/PRF/5 cells. […]
CRP protein concentrations were determined using a CRP ELISA Kit (Alpha Diagnostic International, Inc. San Antonio, Tex. USA (Cat. No.1000)). […] At the end of this incubation a 50 μl stop solution (as described by the manufacturer of the CRP kit) was added to each well and the plate was used to measure absorbance at 450 nm in a Spectra Max Plus, Molecular Devices spectrophotometer.
A CRP standard curve (in ng/ml) was generated by determining 450 nm absorbance values for different amounts of a standard CRP solution, provided by the vendor of the CRP kit, and correcting these values by subtracting the 450 nm absorbance of zero CRP control samples. CRP determinations in experimental samples was done as follows: 10 μl cell media samples in duplicates or triplicates were used to determine 450 nm absorbance. […]

CRP [2] = test: Randomized, double-blind, placebo-controlled dose-response study in patients with HDL-C <35 mg/dL, 12 weeks; CRP by high sensitivity immunonephelometry (Example 15); format: in vivo, human; settings: for levels of CRP reduced by: 900 mg/day; for % change in CRP levels from base line: median percent change
Procedure: As noted above, the dialkyl ethers of this invention are useful for lowering plasma CRP levels. The ability of a dialkylether to lower plasma CRP levels was determined using in vivo studies routinely utilized by those skilled in the art.
A randomized, double-blind, placebo-controlled, parallel group, dose-response, multicenter study was conducted at 11 centers in the United States and one center in Canada. Eligible patients with HDL-C level<35 mg/dL (0.9 mmol/L) were selected following a 6-week, single-blind placebo, dietary lead in period conducted according to National Cholesterol Education Program (NCEP) Step 1 Diet. The NCEP Step 1 Diet guidelines are as follows:
Eligible patients with HDL-C level<35 mg/dL (0.9 mmol/L) were stratified according to whether mean serum TG level measured at both 2 and 4 weeks prior to randomization was <200 mg/dL (2.3 mmol/L) or ≧200 mg/dL (2.3 mmol/L). Within each TG stratum, patients were randomized to receive either 150, 300, 600, or 900 mg of 6,6′-oxybis(2,2-dimethylhexanoic acid) calcium saltor placebo daily (QD) for 12 weeks.
Eligible patients were women of non-childbearing potential (naturally postmenopausal or surgically sterilized) or men 18 to 80 years of age with a baseline HDL-C<35 mg/dL. Patients were excluded if they had creatine phosphokinase (CPK)>3 times the upper limit of normal (ULN), a body mass index>35 kg/m^2, uncontrolled hypertension defined as sitting diastolic blood pressure>95 mm Hg whether taking or not taking an acceptable antihypertensive medication, uncontrolled diabetes mellitus (HbA1C>10%), hepatic dysfunction including asparate aminotransferase (AST) or alanine aminotransferase (ALT)>2 times ULN, renal dysfunction as defined by blood urea nitrogen (BUN) or creatinine>2 times ULN or uncontrolled hypothyroidism (thyroid stimulating hormone>1.5 times ULN). Also excluded were those with a history of gall bladder disease or pancreatitis, a history of consuming>14 alcoholic drinks per week, or those with a known hypersensitivity to lipid-altering drugs. Patients who had myocardial infarction, severe or unstable angina pectoris, coronary artery bypass graft or any other cardiovascular event requiring hospitalization within the last 3 months were also excluded from the study. Patients were not permitted any other lipid-altering drugs during the course of the study and if on prestudy lipid-altering drug therapy, were required to undergo an additional 4-week washout period. Use of isotretinoin, insulin, warfarin, immunosuppressive agents and intermittent systemic steroids were also prohibited.
All blood samples were collected following a 12-hour fast and analyzed using methods well known to one of skill in the art; these methods are described briefly as follows. Serum concentrations of cholesterol and triglycerides were measured using an enzymatic, colorimetric assay on a Hitachi 747 analyzer. The HDL-C samples were obtained from the supernatant after precipitation of the non-HDL lipoproteins using heparin and manganese chloride. Concentrations of CRP were measured using immunonephelometry on a nephelometer (Dade Behring, Marburg, Germany). The high sensitivity assay was used to measure CRP (Dade Behring, Marburg, Germany).
Within each TG stratum, an ANCOVA model with the effects of baseline CRP value, treatment, and site was used to analyze the percent change from baseline at the last visit for CRP by producing least squares (LS) means and p-values. p-values were unadjusted for multiplicity.
The Shapiro-Wilk Test for Normality and visual analysis of the residuals was used to determine if the assumption of normality was reasonable. Since CRP levels in all patients were not normally distributed, median percent changes are presented and Conover's nonparametric ANCOVA was used to analyze the ranked data.

CRP [3] = test: Randomized, double-blind, placebo-controlled dose-response study in hypercholesterolemic patients, 8-week treatment; CRP by high sensitivity assay (Example 17); format: in vivo, human; settings: mean of 6 and 8 week CRP level, placebo 9.4% increase
Procedure: A randomized, double-blind, placebo-controlled, parallel group, dose-response, multicenter study was conducted in hypercholesterolemic patients. The study had three periods: (1) a lipid medication wash-out visit if needed; (2) a qualifying period; and (3) an 8-week double-blind treatment period. The data discussed below is from a portion of a larger study.
Patients with significant cardiac, renal (creatinine>2.0 mg/dL) or liver (alanine aminotransferase [ALT] or aspartate aminotransferase [AST]>1.5× upper limit of normal [ULN]) disease, unexplained CPK levels>3×ULN, body mass index [BMI]>38 kg/m^2, triglycerides [TG]>400 mg/dL, or age>70 years are excluded as are women who are of childbearing potential, pregnant or lactating. A subset of eligible patients was randomized to receive placebo, 300, 600 or 900 mg/day of 6,6′-oxybis(2,2-dimethylhexanoic acid) calcium salt. Each of these groups had 13 to 15 patients.
Blood samples were collected at week −2, week −1, randomization and every two weeks thereafter. CRP levels were determined using a high sensitivity assay as in example 15. The mean of the 6 and the 8 week CRP level was calculated for each patient. Values>10 were not included in the analysis as these values are indicative of acute inflammation. For each dosage group the median of the mean values was determined. These median numbers were compared with median CRP values at baseline. Percent change from baseline in CRP levels due to the administration of 300, 600, 900 mg/day of 6,6′-oxybis(2,2-dimethylhexanoic acid) calcium salt or placebo is shown in FIG. 2. At the 300, 600 and 900 mg doses the levels of CRP were reduced by 26% (p=0.16 vs placebo), 42% (p<0.01 vs placebo) and 35% (p<0.01 vs placebo) respectively, compared to a 9.4% increase in the placebo group.

Row | Compound | doses that effectively inhibited proinflammatory cytokine induced CRP production [1] [µM] | reduction in the CRP level (CRP [2]; 600 mg/day, <200 mg/dL TG stratum, not statistically significant) [%] | CRP level reduced by (CRP [2]; 600 mg/day, ≧200 mg/dL TG stratum, p<0.05 vs Placebo) [%] | levels of CRP reduced by (CRP [2]; <200 mg/dL TG stratum, p<0.05 vs Placebo) [%] | levels of CRP reduced by (CRP [2]; ≧200 mg/dL TG stratum, p<0.001 vs placebo) [%] | % change in CRP levels from base line (CRP [2]; patients TG < 200 mg/dL, 150 mg daily (QD) for 12 weeks) [%] | % change in CRP levels from base line (CRP [2]; patients TG < 200 mg/dL, 300 mg daily (QD) for 12 weeks) [%] | % change in CRP levels from base line (CRP [2]; patients TG < 200 mg/dL, 600 mg daily (QD) for 12 weeks, not statistically significant) [%] | % change in CRP levels from base line (CRP [2]; patients TG < 200 mg/dL, 900 mg daily (QD) for 12 weeks, p < 0.05 versus placebo) | % change in CRP levels from base line (CRP [2]; patients TG ≧ 200 mg/dL, 150 mg daily (QD) for 12 weeks) [%] | % change in CRP levels from base line (CRP [2]; patients TG ≧ 200 mg/dL, 300 mg daily (QD) for 12 weeks) [%] | % change in CRP levels from base line (CRP [2]; patients TG ≧ 200 mg/dL, 600 mg daily (QD) for 12 weeks, p < 0.05 versus placebo) | % change in CRP levels from base line (CRP [2]; patients TG ≧ 200 mg/dL, 900 mg daily (QD) for 12 weeks, p < 0.001 versus placebo) | levels of CRP reduced by (median percent change from baseline) (CRP [3]; 300 mg/day, p=0.16 vs placebo) [%] | levels of CRP reduced by (median percent change from baseline) (CRP [3]; 600 mg/day, p<0.01 vs placebo) [%] | levels of CRP reduced by (median percent change from baseline) (CRP [3]; 900 mg/day, p<0.01 vs placebo) [%]
1 | CC(C)(CCCCOCCCCC(C)(C)C(=O)O)C(=O)O [6,6′-oxybis(2,2-dimethylhexanoic acid), 6,6′-Oxybis-(2,2-dimethylhexanoic acid)] | ≥ 500 |  |  |  |  |  |  |  |  |  |  |  |  |  |  | 
2 | CC(C)(CCCCOCCCCC(C)(C)C(=O)[O-])C(=O)[O-].[Ca+2] [6,6′-oxybis(2,2-dimethylhexanoic acid), calcium salt] |  | 58 | 29 | 54 | 57 | −14.3 | −16.0 | −58.3 | −53.8* % | −22.2 | −16.2 | −28.6* % | −57.1** % | 26 | 42 | 35

From patent US20040167229A1, “Method of lowering CRP and reducing systemic inflammation” (priority 2002, published 2004)
